In one assay the test system is BxPC3 (pancreatic cancer). As to the kind of experiment: ATP level assay (CellTiter-Glo), percent of control. The format is cell-based. The conditions noted are these: Homo sapiens, BXPC-3, 2 h; compound alone, 100 uM, two hour incubation, control DMSO; read-out: POC (percent of control) BxPC3. From the text: (§1) In the present method, the method of using the available assays has been modified to measure the short-term effect of compounds of interest on ATP levels in the cells. […] In the modified method, the control and test cells are initially treated with the metabolic inhibitor for a period of about thirty minutes to about four hours. Typically, the treatment of the cells with the metabolic inhibitor is for one hour prior to adding the compound to be screened for anti-cancer properties. However, simultaneous treatment with the metabolic inhibitor and the compound being screened should provide satisfactory results. […] ATP synthesis in cells occurs over multiple biochemical pathways. These pathways are very responsive to metabolic inhibitors and/or changes in available nutrients. By incorporating a metabolic inhibitor which is known to impact certain pathways, the disclosed method provides for measurement of a compound's direct effects on the remaining metabolic pathways available for ATP synthesis in the cell.
(§2) Following treatment of the control and test cells with the metabolic inhibitor, the method calls for addition of the compound to be screened for anti-cancer properties to the cells. Following addition of the compound of interest, the assay is allowed to continue for about one hour to about four hours or depending on the luminescing agent up to eighteen hours. However, approximately 60 minutes will be sufficient to determine the ATP inhibiting effect of the compound to be screened on the cells. Following completion of the selected time period, the ATP level within the cell is determined. ATP levels can be determined by luminescence according to standard measuring procedures, i.e. the luminescence level of the assay from the living cells treated with the two component composition is compared to the luminescence level of the assay from the living cells without the two component composition, i.e., the control experiment. Thus, the ATP levels are determined without killing the cells during the incubation of the cells in the presence of the compound of interest. As a result, the measured reduction in ATP level corresponds directly to the inhibition of the metabolic pathways uninhibited by the metabolic blocker.
(§3) A wide variety of ATP luminescing detection reagents are available commercially. So long as the reagent produces a luminescence in the presence of ATP, the reagent will be suitable for use in the present method. Suitable reagents include but are not limited to any ATP dependent luciferase such as but not limited to firefly luciferase, other modified luciferase based reagents, i.e. luciferase derivatives. According to the rapid method for determining the anti-cancer activity of a compound, a sample of living cells is distributed across a number of testing wells. Typically, 96-well plates are used; however, the number of wells is not critical to the current method. When using a 96-well plate the number of living cells will commonly be about 20,000. The sample wells contain a cell growth medium to promote cell health and growth and an additive to prevent bacterial contamination of the wells. One common example of the cell growth medium is DMEM with 10% FBS as described above. One example of the additive to prevent bacterial contamination is a solution of penicillin G and streptomycin referred to commonly as Pen-Strep. The Pen-Strep solution typically contains 5000 units of penicillin G and 5000 micrograms of streptomycin. Thus, the rapid determination of anti-cancer compounds can be carried out using the following method. • The desired number of cells are distributed in a 96-well plate containing 100 μL DMEM plus 10% FBS with optional Pen-Strep. • After 24 hours, cells are treated with the compound of interest or a 5% solution of dimethyl sulfoxide (DMSO) in water as a control. • The time period for exposure to the compound of interest and the DMSO control will vary depending on the luminescing detection reagent. […]
Take `O=S(=O)(NCc1c[nH]c2ccccc12)c1ccc(C(F)(F)F)cc1` [Compound 24, N-(1H-indol-3-ylmethyl)-4-(trifluoromethyl)benzenesulfonamide]: the activity at 100 µM stood at 59%.

Still in this assay, the particulars now being: compound 100 uM + 2DG (about 10-20 mM), two hour incubation.
For the compound `O=S(=O)(NCc1c[nH]c2ccccc12)c1ccc(C(F)(F)F)cc1` [Compound 24, N-(1H-indol-3-ylmethyl)-4-(trifluoromethyl)benzenesulfonamide], the “POC (percent of control) BxPC3” value is on record as 43.1% of control.

Still in this assay, the particulars now being: compound 100 uM + rotenone (approximately 1.25 μM), two hour incubation.
Turning to `O=S(=O)(NCc1c[nH]c2ccccc12)c1ccc(C(F)(F)F)cc1` [Compound 24, N-(1H-indol-3-ylmethyl)-4-(trifluoromethyl)benzenesulfonamide], the “POC (percent of control) BxPC3” value is listed as 38.6% of control.

Another assay deals with H293 (kidney cancer). Described as above. The format is cell-based. The conditions noted are these: 2 h; compound alone, 100 uM, two hour incubation, control DMSO; read-out: POC (percent of control) H293.
Excerpt: as §1, §2, §3
With `O=S(=O)(NCc1c[nH]c2ccccc12)c1ccc(C(F)(F)F)cc1` [Compound 24, N-(1H-indol-3-ylmethyl)-4-(trifluoromethyl)benzenesulfonamide], the activity at 100 µM was 62.6%.

The same assay, now with this note: compound 100 uM + 2DG (about 10-20 mM), two hour incubation.
As to `O=S(=O)(NCc1c[nH]c2ccccc12)c1ccc(C(F)(F)F)cc1` [Compound 24, N-(1H-indol-3-ylmethyl)-4-(trifluoromethyl)benzenesulfonamide], the “POC (percent of control) H293” value is listed as 42.1% of control.

Still in this assay, the particulars now being: compound 100 uM + rotenone (approximately 1.25 μM), two hour incubation.
For the compound `O=S(=O)(NCc1c[nH]c2ccccc12)c1ccc(C(F)(F)F)cc1` [Compound 24, N-(1H-indol-3-ylmethyl)-4-(trifluoromethyl)benzenesulfonamide], the “POC (percent of control) H293” value is listed as 47.6% of control.

For a further assay, the system named is HDF (normal cells). The assay is described as above. The format is cell-based. To be noted: 2 h; compound alone, 100 uM, two hour incubation, control DMSO; read-out: POC (percent of control) HDF.
Excerpt: as §1, §2, §3
Regarding `O=S(=O)(NCc1c[nH]c2ccccc12)c1ccc(C(F)(F)F)cc1` [Compound 24, N-(1H-indol-3-ylmethyl)-4-(trifluoromethyl)benzenesulfonamide], the activity at 100 µM stood at 57.2%.

The same assay, now with this note: compound 100 uM + 2DG (about 10-20 mM), two hour incubation.
As to `O=S(=O)(NCc1c[nH]c2ccccc12)c1ccc(C(F)(F)F)cc1` [Compound 24, N-(1H-indol-3-ylmethyl)-4-(trifluoromethyl)benzenesulfonamide], the “POC (percent of control) HDF” value is recorded as 65.6% of control.

Still in this assay, the particulars now being: compound 100 uM + rotenone (approximately 1.25 μM), two hour incubation.
For `O=S(=O)(NCc1c[nH]c2ccccc12)c1ccc(C(F)(F)F)cc1` [Compound 24, N-(1H-indol-3-ylmethyl)-4-(trifluoromethyl)benzenesulfonamide], the “POC (percent of control) HDF” value is 95.7% of control.

A further assay deals with HeLa (cervical cancer). The description is as above. The format is cell-based. The conditions noted are these: Homo sapiens, HeLa, 2 h; compound alone, 100 uM, two hour incubation, control DMSO; read-out: POC (percent of control) HeLa.
Excerpt: as §1, §2, §3
Regarding `O=S(=O)(NCc1c[nH]c2ccccc12)c1ccc(C(F)(F)F)cc1` [Compound 24, N-(1H-indol-3-ylmethyl)-4-(trifluoromethyl)benzenesulfonamide], the activity at 100 µM stood at 78.9%.

Staying with this assay, now noted: compound 100 uM + 2DG (about 10-20 mM), two hour incubation.
`O=S(=O)(NCc1c[nH]c2ccccc12)c1ccc(C(F)(F)F)cc1` [Compound 24, N-(1H-indol-3-ylmethyl)-4-(trifluoromethyl)benzenesulfonamide]: the “POC (percent of control) HeLa” value is recorded as 80.4% of control.

The same assay, now with this note: compound 100 uM + rotenone (approximately 1.25 μM), two hour incubation.
On to `O=S(=O)(NCc1c[nH]c2ccccc12)c1ccc(C(F)(F)F)cc1` [Compound 24, N-(1H-indol-3-ylmethyl)-4-(trifluoromethyl)benzenesulfonamide], for which the “POC (percent of control) HeLa” value is 96.1% of control.

The subject of a further assay is MCF10A (non-cancerous breast). Described as above. The format is cell-based. To be noted: Homo sapiens, MCF-10A, 2 h; compound alone, 100 uM, two hour incubation, control DMSO; read-out: POC (percent of control) MCF10A.
Excerpt: as §1, §2, §3
Consider `O=S(=O)(NCc1c[nH]c2ccccc12)c1ccc(C(F)(F)F)cc1` [Compound 24, N-(1H-indol-3-ylmethyl)-4-(trifluoromethyl)benzenesulfonamide], for which the activity at 100 µM amounted to 85.1%.

The assay is the same for the next values; noted with them: compound 100 uM + 2DG (about 10-20 mM), two hour incubation.
On to `O=S(=O)(NCc1c[nH]c2ccccc12)c1ccc(C(F)(F)F)cc1` [Compound 24, N-(1H-indol-3-ylmethyl)-4-(trifluoromethyl)benzenesulfonamide], for which the “POC (percent of control) MCF10A” value was 56.8% of control.

The assay is the same for the next values; noted with them: compound 100 uM + rotenone (approximately 1.25 μM), two hour incubation.
As to `O=S(=O)(NCc1c[nH]c2ccccc12)c1ccc(C(F)(F)F)cc1` [Compound 24, N-(1H-indol-3-ylmethyl)-4-(trifluoromethyl)benzenesulfonamide], the “POC (percent of control) MCF10A” value is 59.1% of control.

The next assay deals with MCF7 (breast cancer). The description is as above. The format is cell-based. To be noted: Homo sapiens, MCF7, 2 h; compound alone, 100 uM, two hour incubation, control DMSO; read-out: POC (percent of control) MCF7.
Excerpt: as §1, §2, §3
In the case of `O=S(=O)(NCc1c[nH]c2ccccc12)c1ccc(C(F)(F)F)cc1` [Compound 24, N-(1H-indol-3-ylmethyl)-4-(trifluoromethyl)benzenesulfonamide], the activity at 100 µM was found to be 82.9%.

The record behind these values is patent US20230266302A1, “SYNTHESIS AND USE OF N-BENZYL SULFONAMIDES” (THE UNIVERSITY OF TULSA, priority 2020, published 2023).
